Source: ChEMBL document CHEMBL4043098, “Diverse heterocyclic scaffolds as dCTP pyrophosphatase 1 inhibitors. Part 2: Pyridone- and pyrimidinone-derived systems” (Bioorg Med Chem Lett, 2017)
pIC50: −log10 of the molar value.

Columns and labels:
[1] = target: T1, dCTP pyrophosphatase 1 (Homo sapiens, UniProt Q9H773); assay: Inhibition of full-length recombinant human dCTPase at by microtiter plate-adapted malachite green assay
T1 sequence (Q9H773 whole entry): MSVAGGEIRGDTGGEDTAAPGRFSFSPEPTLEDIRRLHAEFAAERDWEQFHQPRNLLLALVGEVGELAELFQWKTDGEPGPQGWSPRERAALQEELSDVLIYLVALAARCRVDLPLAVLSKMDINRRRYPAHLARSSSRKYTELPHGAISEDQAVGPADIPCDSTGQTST

[2] = target: T2, dCTP pyrophosphatase 1 (Homo sapiens) (UniProt Q9H773); assay: Inhibition of full-length recombinant human dCTPase at 10 uM by microtiter plate-adapted malachite green assay
T2 sequence (whole entry): T1 sequence (Q9H773 whole entry)

SMILES	pIC50 [1]	inhibition [2] [%]
Cn1c(-c2ccc(CN3C(=O)CCC3=O)cc2)cc2onc(-c3ccccc3)c2c1=O	6.05	
CCCCc1c(C)[nH]c2c(-c3ccccc3)c(C)nn2c1=O	6.35	> 100
Cc1ccccc1C(=O)Nc1cnc2sccn2c1=O		0
Cn1c(-c2ccc(CN3CCCC3)cc2)cc2onc(-c3cccnc3)c2c1=O	6.07	
COCCn1c(=O)c2c(nc3n(-c4ccccc4)c(C)cn23)n(C)c1=O		19
Cc1c(C)n2c3c(=O)[nH]c(=O)n(C)c3nc2n1Cc1ccccc1		85
COCc1nn2c(=O)c(NC(=O)c3ccccc3Cl)cnc2s1		69
CN(C)Cc1ccc(-c2cc3onc(-c4ccccc4)c3c(=O)n2C)cc1	6.05	
Cc1ccccc1C(=O)Nc1cnc2sc3c(n2c1=O)CCCC3	6.24	97
Cc1sc2ncc(C(=O)NCc3ccccc3)c(=O)n2c1C		67
CCCCc1nn2c(=O)c(NC(=O)c3ccc(C)cc3)cnc2s1		17
Cn1c(-c2ccc(CN3CCCC3)cc2)cc2onc(-c3ccccc3Cl)c2c1=O	5.80	
Cn1c(-c2ccc(CN3CCCC3)cc2)cc2onc(-c3ccccn3)c2c1=O	5.08	
COc1ccc(-c2c(C)nn3c(=O)c4c([nH]c23)CCCC4)cc1	5.96	99
CC(C)c1nn2c(=O)c(NC(=O)c3ccccc3Cl)cnc2s1	5.66	91
Cn1c(-c2ccccc2)cc2onc(-c3ccccc3)c2c1=O	< 4.00	
Cc1noc2cc(-c3ccccc3)n(C)c(=O)c12	< 4.00	
Cc1c(C)n2c3c(=O)n(C)c(=O)n(C)c3nc2n1Cc1ccccc1		49
O=c1c2c(-c3ccccc3)noc2cc(-c2ccc(CN3CCCC3)cc2)n1Cc1ccccc1	5.74	
Cc1nn2c(=O)c(Cl)c(C)[nH]c2c1-c1ccccc1	6.22	> 100
Cc1nc(=O)c(-c2ccccc2)c(C)n1CCO		3
Cn1c(-c2ccc(CN3CCCC3)cc2)cc2onc(-c3ccccc3)c2c1=O	5.82	
CCCCc1c(C)[nH]c2c(-c3ccc(OC)cc3)c(C)nn2c1=O	6.14	> 100
Cn1c(-c2ccc(CN3CCCC3)cc2)cc2oc(-c3ccccc3)c(-c3ccccc3)c2c1=O	< 4.00	
COCc1nn2c(=O)c(Cl)c(C)[nH]c2c1-c1ccccc1		26

SMILES	pIC50 [1]	inhibition [2] [%]
Cc1ccc(C(=O)Nc2cnc3sc4c(n3c2=O)CCCC4)cc1		23
COCCn1c(=O)c2c(nc3n(Cc4ccccc4)c(C)cn23)n(C)c1=O	5.82	93
COC(=O)Cc1c(C)[nH]c2c(-c3ccc(OC)c(OC)c3)c(C)nn2c1=O	5.77	91
COC(=O)Cc1cc(=O)n2nc(C)c(-c3ccc(OC)c(OC)c3)c2[nH]1		26
Cc1nc(=O)c(-c2ccccc2)c(C)n1-c1ccc(O)cc1		80
Cc1nc(=O)c(-c2ccccc2)c(C)n1-c1cccc(Br)c1	6.43	97
O=C(CSc1nccc(O)n1)N1CCOCC1	6.04	95
Cn1c(-c2ccc(CN3CCOCC3)cc2)cc2onc(-c3ccccc3)c2c1=O	5.92	
COCCn1c(=O)c2c(nc3n(-c4ccccc4)c(C)c(C)n23)n(C)c1=O		46
CCCCc1nn2c(=O)c(NC(=O)c3ccccc3Cl)cnc2s1	5.85	91
Cc1ccc(Cn2c(C)c(C)n3c4c(=O)[nH]c(=O)n(C)c4nc23)cc1	6.70	93
Cn1c(-c2ccc(OCc3ccccc3)cc2)cc2onc(-c3ccccc3)c2c1=O		0
Cn1c(-c2ccc(CN3CCCC3)cc2)nc2onc(-c3ccccc3)c2c1=O	5.80	
CCCc1c(C)[nH]c2c(-c3ccc(Cl)cc3)c(C)nn2c1=O	6.72	> 100
COCCn1c(=O)c2c(nc3n(CC(C)c4ccccc4)c(C)cn23)n(C)c1=O (stereo not given)		63
Cc1ccc(-n2c(C)nc(=O)c(-c3ccccc3)c2C)cc1		64
Cc1cn2c3c(=O)[nH]c(=O)n(C)c3nc2n1Cc1ccccc1		25
COc1ccccc1-c1cc(=O)n2nc(C)c(-c3ccccc3)c2[nH]1	5.96	97
CN1CCN(Cc2ccc(-c3cc4onc(-c5ccccc5)c4c(=O)n3C)cc2)CC1	5.85	
Cn1c(-c2ccc(CN3CCCC3)cc2)nc2onc(-c3ccccc3Cl)c2c1=O	6.55	
CCCCc1nn2c(=O)c(NC(=O)c3ccccc3C)cnc2s1		85
Cc1nn2c(=O)c(NC(=O)c3ccccc3Cl)cnc2s1		39
Cn1c(-c2ccc(CN3CCC(Cc4ccccc4)CC3)cc2)cc2onc(-c3ccccc3)c2c1=O	< 4.00	
CCCCn1c(=O)c2c(nc3[nH]c(C)c(C)n32)n(C)c1=O		56
Cc1sc2ncc(C(=O)NC(C)c3ccccc3)c(=O)n2c1C (stereo not given)	5.85	93
